Measured values published in publication PMC3926802 (Molecular pharmaceutics, 2012).
“And” between values parts separate entries of the source, which are not always exact repeats. Equal values may be shown once. Read-outs that look alike come from different tables or passages of the source.

Key:
[1] = cited from earlier work
[2] = cited from earlier work; remark: listed apart in the source
[3] = Thermodynamic solubility in water for injection; type: physicochemical; details: for Solubility: water for injection (pH 6.4), 37 °C, 6 hours
Buffer = type: physicochemical; details: buffer (pH 7.4), 37°C, 24 hours
[4] = In vivo tissue distribution and bioconversion after topical eye drop; design: species or system pigmented rabbits
[5] = In vitro transport across SCRPE; details: for Cumulative % transport compared with GFX, SCRPE / Fold improvement in permeability compared to GFX, SCRPE: 200 μM donor; for Cumulative % transport compared with GFX, SCRPE: no inhibitor; for Fold improvement in permeability compared to GFX, SCRPE: pH 7.4, 37 °C; for GFX levels formed in the prodrug group, SCRPE: during in vitro transport study
[6] = In vitro transport across conjunctiva; details: for Cumulative % transport compared with GFX, conjunctiva / Fold improvement in permeability compared to GFX, conjunctiva: 200 μM donor; for Cumulative % transport compared with GFX, conjunctiva: no inhibitor; for Fold improvement in permeability compared to GFX, conjunctiva: pH 7.4, 37 °C; for GFX levels formed in the prodrug group, conjunctiva: during in vitro transport study
Log D = details: n-octanol and PBS buffer (pH 7.4), 37 °C; mean ± SD, n = 3
[7] = In vitro transport across cornea; details: for Cumulative % transport compared with GFX, cornea / Fold improvement in permeability compared to GFX, cornea: 200 μM donor; for Cumulative % transport compared with GFX, cornea: no inhibitor; for Fold improvement in permeability compared to GFX, cornea: pH 7.4, 37 °C; for GFX levels formed in the prodrug group, cornea: during in vitro transport study
[8] = topical eye drop dosing in rabbits
[9] = 1 hour after topical dose of DMAP-GFX
[10] = MPP+ (500 μM), OCT inhibitor, versus no inhibitor
[11] = absence of OCT inhibitor MPP+, printed as compared to GFX
[12] = α-methyl-DL-tryptophan, ATB (0, +) inhibitor, versus no inhibitor

| Compound | GFX formed from prodrug (Buffer) [%] | Solubility ([3]; mean ± SD, n = 3) [µg/mL] | Cumulative % transport compared with GFX, SCRPE [5] | Fold improvement in permeability compared to GFX, SCRPE [5] | GFX levels formed in the prodrug group, SCRPE [5] | Cumulative % transport compared with GFX, conjunctiva [6] | Fold improvement in permeability compared to GFX, conjunctiva [6] | GFX levels formed in the prodrug group, conjunctiva [6] | Log D (pH 7.4) (Log D) | Cumulative % transport compared with GFX, cornea [7] | Fold improvement in permeability compared to GFX, cornea [7] | GFX levels formed in the prodrug group, cornea [7] | Solubility [3] [mM] | further results |
| --- | --- | --- | --- | --- | --- | --- | --- | --- | --- | --- | --- | --- | --- | --- |
| COc1c(N2CCNC(C)C2)c(F)cc2c(=O)c(C(=O)O)cn(C3CC3)c12 (centres unmarked) [GFX, Gatifloxacin sesquihydrate] |  |  |  |  |  |  |  |  |  |  |  |  |  | pKa, carboxylic acid (reported) [1]: 5.94; Tmax in vitreous humor ([2]; single eye drop, pigmented rabbits): 60 min; Tmax, conjunctiva [2, 8]: 4.98 min; Tmax, plasma [2, 8]: 4.98 min; Tmax, tear fluid [2, 8]: 4.98 min; solubility at 6 h ([3]; water for injection, pH 6.4): 2600 µg/mL and 7000 µM |
| COc1c(N2CCNC(C)C2)c(F)cc2c(=O)c(C(=O)NCCCC(=O)O)cn(C3CC3)c12 (racemic) [CP-GFX, (±)-4-(1-cyclopropyl-6-fluoro-8-methoxy-7-(3-methylpiperazin-1-yl)-4-oxo-1,4-dihydroquinoline-3-carboxamido)butanoic acid] | 8.63 | 3010 ± 200 |  |  |  |  |  |  |  |  |  |  |  | Log D (pH 7.4): 0.11 ± 0.01 |
| COc1c(N2CCNC(C)C2)c(F)cc2c(=O)c(C(=O)NCCCN(C)C)cn(C3CC3)c12 (racemic) [DMAP-GFX, (±)-1-cyclopropyl-N-(3-(dimethylamino)propyl)-6-fluoro-8-methoxy-7-(3-methylpiperazin-1-yl)-4-oxo-1,4-dihydroquinoline-3-carboxamide] | 9.51 | 33260 ± 3000 | significantly higher than GFX | 1.9 fold and 1.95 fold | below the detection limits | significantly higher than GFX | 1.8 fold and 1.85 fold | below the detection limits | 0.05 ± 0.01 | significantly higher than GFX | 1.4 fold and 1.42 fold | below the detection limits | 72 | Formed drug (GFX) levels as % of the total drug, CRPE [4, 9]: 13%; Formed drug (GFX) levels as % of the total drug, conjunctiva [4, 9]: 70%; Formed drug (GFX) levels as % of the total drug, cornea [4, 9]: 8%; Formed drug (GFX) levels as % of the total drug, iris-ciliary body [4, 9]: 24%; Formed drug (GFX) levels as % of the total drug, retina [4, 9]: 55%; Formed drug (GFX) levels as % of the total drug, sclera [4, 9]: 29%; Formed drug (GFX) levels as % of the total drug, vitreous humor [4, 9]: 60%; Drug levels in the remaining tissues, prodrug versus drug group ([4]; 1 hour after topical eye drop, tissues other than vitreous humor and CRPE): not significantly different; Cumulative % transport in the presence of MPP+, SCRPE [5, 10]: significantly lower; Permeability in the absence of inhibitor, fold higher, SCRPE [5, 11]: 2.06 fold; Cumulative % transport in the presence of MPP+, conjunctiva [6, 10]: significantly lower; Cumulative % transport in the presence of MPP+, cornea [7, 10]: significantly lower; Permeability in the absence of inhibitor, fold higher, cornea [7, 11]: 1.42 fold; Fold higher solubility than CP-GFX ([3]; compared to CP-GFX (6.0 mM)): 12 fold; Fold greater solubility than GFX ([3]; compared to GFX): 12.8 fold |
| COc1c(N2CCN(C(=O)[C@@H](N)CC(C)C)C(C)C2)c(F)cc2c(=O)c(C(=O)O)cn(C3CC3)c12 (some centres unmarked) [APM-GFX] | 8.97 | 2160 ± 300 | did not show any improvement | did not show any improvement | below the detection limits | did not show any improvement | did not show any improvement | below the detection limits | 1.04 ± 0.02 | did not show any improvement | did not show any improvement | below the detection limits | 4 | Transport in the presence of α-methyl-DL-tryptophan, SCRPE [5, 12]: did not show any change; Transport in the presence of α-methyl-DL-tryptophan, conjunctiva [6, 12]: did not show any change; Transport in the presence of α-methyl-DL-tryptophan, cornea [7, 12]: did not show any change |
